{"source": "paper PMC5325331", "about": "“A steroid like phytochemical Antcin M is an anti-aging reagent that eliminates hyperglycemia-accelerated premature senescence in dermal fibroblasts by direct activation of Nrf2 and SIRT-1” (Oncotarget, 2016)", "key": {"[1]": {"system": "SIRT-1, SIRT-3 and SIRT-6 mRNA", "assay": "Q-PCR of SIRT genes in HNDFs", "type": "cell-based, human", "details": "ANM 10 μM, 72 h", "procedure": "(§1) Total RNA was extracted from cultured HNDFs using Trizol Reagent (Thermo Fisher Scientific). Q-PCR analysis was performed using Applied Biosystems detection instruments and software. Forward and reverse primers (10 μM), and the working solution SYBR green, was used as a PCR master mix, under the following conditions: 96°C for 3 minutes followed by 40 cycles at 96°C for 1 minute, 50°C for 30 seconds and 72°C for 90 seconds. GAPDH was used as an internal standard to control for variability in amplification because of differences in starting mRNA concentrations. The copy number of each transcript was calculated as the relative copy number normalized by GAPDH copy number."}, "HNDFs": {"system": "HNDFs", "assay": "Cell-cycle analysis by flow cytometry (PI) in HG-induced HNDFs", "type": "cell-based, human", "details": "ANM 10 μM with HG (30 mM) for 72 h; HG 71.2%, NG 46.5%", "procedure": "HNDFs at a density of 5 × 10^5 cells in 10 cm dishes were treated with ANM or NAC in the presence or absence of HG for 72 h. Cells were collected, washed with PBS and fixed in 95% cold-ethanol, and kept at −20°C overnight. The cell pellet was then washed again with PBS and centrifuged at 1500 × g for 5 min. The pellet was re-suspended in 1 mL PI/Triton X-100 (20 μg/mL PI, 0.1% Triton X-100 and 0.2 mg/mL RNAse) and incubated on ice for 30 min. The total cellular DNA content was analyzed with a flow cytometer (Beckman Coulter FC500). Data were acquired and analyzed using CXP software (Beckman Coulter)."}, "[2]": {"system": "C. elegans wild type Bristol N2", "assay": "Life span assay in C. elegans", "type": "in vivo, Caenorhabditis elegans", "procedure": "The wild type Bristol N2 strain was used in this study. C. elegans and Escherichia coli OP50 strain were obtained from the Caenorhabditis Genetic Center, University of Minnesota (Minneapolis-St. Paul, MN). Worms were maintained at 20°C on nematode growth medium (NGM). Hatched worms (L1-stage larvae) were transferred to fresh agar plates and cultured with E. coli OP50 as a food source until they reached the L4 larvae stage. Synchronization of worm cultures was achieved by hypochlorite treatment of gravid hermaphrodites. […] Control worms were treated with 0.1% DMSO. All worms were kept 20°C to develop adulthood. Surviving and dead animals were counted daily (starting from the first day of adulthood) until all worms had died. […] Worms suffering from internal hatch (a defect in egg-laying) and those that crawled off the NGM plate were not included in the life-span assay. During the reproductive period, adult worms were transferred to fresh NGM plates every and then every other day thereafter. Life span assay result was obtained from three independent assays."}, "[3]": {"system": "p16INK4A, p21CIP1 and SMP30", "assay": "Western blot of senescence-associated marker proteins in HG-induced HNDFs", "type": "cell-based, human", "details": "10 μM with HG (30 mM) for 72 h, immunoblotting", "procedure": "Cells were lysed by either RIPA lysis buffer or nuclear and cytoplasmic extraction reagents (Thermo Fisher Scientific). Protein concentrations were determined by Bio-Rad protein assay reagent (Bio-Rad Laboratories, Hercules, CA). Equal amounts of protein samples (60 μg) were separated by 7-12% SDS-PAGE and the separated proteins were transferred onto polyvinylidene […] (PVDC) membrane overnight. The transferred protein membranes were blocked with 5% non-fat dried milk for 30 min, followed by incubation with specific primary antibodies overnight, and either horseradish peroxidase-conjugated goat anti-rabbit or anti-mouse antibodies for 2 h. The blots were detected using VL Chemi-Smart 3000 (Viogene Biotek, Sunnyvale, CA) with the enhanced chemiluminescence (ECL) western blotting reagent (Millipore, Billerica, MA)."}, "[4]": {"assay": "Cell-free DPPH free-radical scavenging assay", "protocol": "Therefore, next to determine whether ANM acts directly as a free-radical scavenger, we performed a cell-free DPPH free-radical scavenging assay.\nFigure 5 Antcin M activates Nrf2-dependent anti-oxidant defense in HNDFs A. To determine the free-radical scavenging effect of ANM, cell-free DPPH assay was performed. […] Results expressed as mean ± S.E.M of three indipendent expriments."}, "HUVECs [5]": {"system": "HUVECs", "assay": "Intracellular ROS by DCF fluorescence assay in HUVECs", "type": "cell-based, human", "details": "ANM 10 μM with HG (30 mM) for 48 h; HG alone 14.3-fold", "procedure": "Cell viability was dermined by MTT assay. Percentage of viable cells were normalized with control cells (NG). B. Cellular senescence was determined by SA-β-gal activity assay as descrided in Materials and Methods. C., D. Total cell lysate was extracted and senescence-associated marker proteins including p16INK4A, p21CIP1, total and acetylated p53 and FoxO1 were measured by western blot analysis. E. Protein expression levels of SIRT-1 and phos-SIRT-1 were monitored by immunoblotting. […] The intracellular ROS level was quantified by utilizing DCFH-DA assay. G. Western blot analysis was performed to determine the protein expression levels of HO-1 and NQO-1. […] Cell lysates were mixed with luciferase reagents and quantified using an illuminometer. Relative ARE promoter activity was calculated by dividing the relative luciferace unit (RLU) of treated cells by RLU of untraeated cells (NG). Results expressed as mean ± SEM of three indipendent expriments. Statistical significance at ^ФP < 0.05 compared to NG vs. HG and *P < 0.05 compared to HG vs. samples."}, "HUVECs [6]": {"system": "HUVECs", "assay": "Cell viability of HUVECs (MTT assay)", "type": "cell-based, human", "details": "ANM 10 μM or RES 5 μM for 48 h", "procedure": "Human normal dermal fibroblasts ([…]) and human umbilical vein endothelial cells (HUVECs) were obtained from the Bioresource Collection and Research Center (BCRC), Hsinchu, Taiwan. […] Likewise, HUVECs were grown in M-199 medium supplemented with ECGS, heparin, 10% FBS and 100 U/mL penicillin and streptomycin at 37°C in a fully humidified atmosphere of 5% CO2. High-glucose treatment was performed by treating cells with 15 or 30 mM D-glucose (HG) for 24-72 h. […] Cell viability was assessed by MTT colorimetric assay. […] After treatment with HG (15 and 30 mM) in the presence or absence of samples for 24-72 h, culture media was withdrawn and incubated with MTT (1 mg/mL) in fresh medium for 2 h. The MTT formazan crystals were dissolved in 400 μL of DMSO and the samples were measured at 570 nm […] using an ELISA microplate reader (Bio-Tek Instruments, Winooski, VT). The percentage of cell viability (%) was calculated as (A570 of treated cells/A570 of untreated cells) × 100."}, "HO-1 and NQO-1 mRNA": {"system": "HO-1 and NQO-1 mRNA", "assay": "Q-PCR of anti-oxidant genes in HNDFs", "type": "cell-based, human", "details": "ANM 10 μM, 12 h", "procedure": "as §1"}, "HUVECs [7]": {"system": "HUVECs", "assay": "SA-β-gal senescence assay in HG-treated HUVECs", "type": "cell-based, human", "details": "ANM 10 μM with HG (30 mM) for 48 h; HG alone 6.38-fold", "procedure": "Senescence-associated β-galactosidase (SA-β-gal) activity was determined in formaldehyde-fixed histochemical staining kit according to the manufacturer's instructions (Cell Signaling Technology, Danvers, […]). Briefly, cells were grown in 6-well plates at a density of 5 × 10^4 cells/well, and incubated with HG or test samples for 48 h (HUVECs) or 72 h (HNDFs). After incubation, cells were stained with SA-β-gal staining solution at pH 6.0 overnight and then the development of blue staining was observed and photographed under a bright-field microscope (Motic Electric Group, Xiamen, P.R. China)."}}}
{"smiles": "C=C(CCC(C)C1CCC2C3=C(C(=O)C(O)C21C)C1(C)CCC(O)C(C)C1CC3)C(C)C(=O)O", "note": "(centres unmarked) [ANM, antcin M]", "values": [{"measurement": "SIRT-1, SIRT-3 and SIRT-6 levels compared to the control group", "setting": "[1]", "result": "significantly increased"}, {"measurement": "cell population in the G0/G1 phase", "setting": "HNDFs", "result": 49.5, "unit": "%"}, {"measurement": "life span of C. elegans under normal condition", "setting": "[2]; ANM 10 μM or RES 438 μM alone, compared to the control", "result": "significantly (P < 0.026) prolonged the life span"}, {"measurement": "life span of C. elegans under high glucose", "setting": "[2]; high glucose (50 mM) with ANM (100 μM as printed elsewhere in the source), vs high glucose alone", "result": "significant (P < 0.0001) increase of life span"}, {"measurement": "HG-induced upregulation of p16INK4A and p21CIP1 proteins", "setting": "[3]", "result": "significantly downregulated"}, {"measurement": "SMP30 protein expression", "setting": "[3]", "result": "rescued HG-induced SMP30 depletion"}, {"measurement": "free-radical scavenging in the cell-free system", "setting": "[4]", "result": "failed to scavenge free radicals"}, {"measurement": "intracellular ROS levels", "setting": "HUVECs [5]", "result": 6.1, "unit": "fold"}, {"measurement": "cell viability of HUVECs, treatment alone", "setting": "HUVECs [6]", "result": "did not affect cell viability"}, {"measurement": "mRNA levels of HO-1 and NQO-1", "setting": "HO-1 and NQO-1 mRNA", "result": "significantly increased"}, {"measurement": "SA-β-gal staining (endothelial senescence)", "setting": "HUVECs [7]", "result": 1.36, "unit": "fold"}]}
